Format in all cases: functional
The subject of assay [1] is Leishmania donovani. In words: Antiparasitic activity against Leishmania donovani MHOM-ET-67/L82 axenic amastigotes assessed as growth inhibition at 0.8 ug/ml after 72 hrs by resazurin dye-based fluorometric analysis relative to control. The following applies: MHOM-ET-67/L82, 72 h, read-out: GI.
For assay [2], the system named is Trypanosoma brucei rhodesiense. In words: Antiparasitic activity against Trypanosoma brucei rhodesiense STIB 900 trypomastigote bloodstream form assessed as growth inhibition at 0.8 ug/ml after 72 hrs by resazurin dye-based fluorometric analysis relative to control. The following applies: STIB 900, 72 h, read-out: GI. For orientation: The colour change of resazurin is a common sign of viable cells or microbes.

Assay [3] deals with Leishmania donovani. In words: Antiparasitic activity against Leishmania donovani MHOM-ET-67/L82 axenic amastigotes assessed as growth inhibition at 4.8 ug/ml after 72 hrs by resazurin dye-based fluorometric analysis relative to control. To be noted: MHOM-ET-67/L82, 72 h, read-out: GI.
Assay [4] deals with Plasmodium falciparum. In words: Antiparasitic activity against intraerythrocytic form of chloroquine/pyrimethamine-resistant Plasmodium falciparum K1 infected in human RBC assessed as growth inhibition at 4.8 ug/ml preincubated for 48 hrs followed by [3H]-hypoxanthine addition measured after 24 hrs by liquid scintillation counting analysis relative to control. The following applies: read-out: GI.

In assay [5] the test system is Trypanosoma brucei rhodesiense. In words: Antiparasitic activity against Trypanosoma brucei rhodesiense STIB 900 trypomastigote bloodstream form assessed as growth inhibition at 4.8 ug/ml after 72 hrs by resazurin dye-based fluorometric analysis relative to control. The following applies: STIB 900, 72 h, read-out: GI.
Assay [6] relates to Trypanosoma cruzi. In words: Antiparasitic activity against Trypanosoma cruzi Tulahuen C4 intracellular amastigotes infected in rat L6 cells assessed as growth inhibition at 0.8 ug/ml after 96 hrs by CPRG/Nonidet reagent based photometric analysis relative to control. The following applies: Tulahuen C4, L6, 96 h, read-out: GI.
Assay [7] relates to Trypanosoma cruzi. In words: Antiparasitic activity against Trypanosoma cruzi Tulahuen C4 intracellular amastigotes infected in rat L6 cells assessed as growth inhibition at 4.8 ug/ml after 96 hrs by CPRG/Nonidet reagent based photometric analysis relative to control. To be noted: Tulahuen C4, L6, 96 h, read-out: GI.
In assay [8] the test system is Plasmodium falciparum. In words: Antiparasitic activity against intraerythrocytic form of chloroquine/pyrimethamine-resistant Plasmodium falciparum K1 infected in human RBC assessed as growth inhibition at 0.8 ug/ml preincubated for 48 hrs followed by [3H]-hypoxanthine addition measured after 24 hrs by liquid scintillation counting analysis relative to control. To be noted: read-out: GI.

`O=[N+]([O-])c1ccccc1S(=O)(=O)N1CCCc2ccccc21`: the inhibition of growth at 0.8 µg/mL came to 10.1% in the assay with Leishmania donovani [1], 6.2% in assay [2], 0% in the assay on Trypanosoma cruzi [6] and 3.5% in the assay on Plasmodium falciparum [8]. Besides, the inhibition of growth at 4.8 µg/mL with Leishmania donovani [3] was found to be 50.1%; in the assay with Plasmodium falciparum [4] it was 38%; in assay [5], 17.1%; in the assay with Trypanosoma cruzi [7], 26.9%.

As to `O=S(=O)(c1ccc(C(F)(F)F)cc1)N1CCCc2ccccc21`, the inhibition of growth at 0.8 µg/mL was found to be 20.1% with Leishmania donovani [1], 7.2% in assay [2], 0% with Trypanosoma cruzi [6] and 7.2% with Plasmodium falciparum [8]. Moreover, the inhibition of growth at 4.8 µg/mL was determined as 85% in the assay on Leishmania donovani [3], 75.3% in the assay with Plasmodium falciparum [4], 18.1% in assay [5] and 22.6% in the assay with Trypanosoma cruzi [7].

On to `CC(C)(C)c1ccc(S(=O)(=O)n2nnc3ccccc32)cc1`, for which the inhibition of growth at 0.8 µg/mL was found to be 13.3% in the assay on Leishmania donovani [1], 8.8% in assay [2], 8.5% in the assay with Trypanosoma cruzi [6] and 0% in the assay on Plasmodium falciparum [8]. Moreover, the inhibition of growth at 4.8 µg/mL with Leishmania donovani [3] was found to be 42.8%; in the assay with Plasmodium falciparum [4] it was 0%; in assay [5], 0%; in the assay with Trypanosoma cruzi [7], 7.4%.

For the molecule `COc1ccc(S(=O)(=O)N2CCc3ccccc32)cc1`, the inhibition of growth at 0.8 µg/mL in the assay on Leishmania donovani [1] was found to be 18.6%; in assay [2], 0%; in the assay on Trypanosoma cruzi [6] it was 12.1%; with Plasmodium falciparum [8] it was 0%. Further, the inhibition of growth at 4.8 µg/mL in the assay with Leishmania donovani [3] stood at 42.6%; in the assay with Plasmodium falciparum [4] it was 11.6%; in assay [5], 0%; with Trypanosoma cruzi [7] it was 27.4%.

Regarding `CC(C)(C)c1ccc(S(=O)(=O)N2CCc3ccccc3C2)cc1`, the inhibition of growth at 0.8 µg/mL in the assay on Leishmania donovani [1] was determined as 31.6%; in assay [2] it was 10.8%; with Trypanosoma cruzi [6], 0%; with Plasmodium falciparum [8], 11.6%. The inhibition of growth at 4.8 µg/mL amounted to 100% in the assay on Leishmania donovani [3], 86% in the assay with Plasmodium falciparum [4], 8.7% in assay [5] and 26.7% in the assay with Trypanosoma cruzi [7].

For `Nc1nc(N)nc(Nc2ccc([As]3SCC(CO)S3)cc2)n1` (centres undefined) [MELARSOPROL], the inhibition of growth at 0.8 µg/mL in assay [2] was 44.4%. Also, the inhibition of growth at 4.8 µg/mL in assay [5] worked out at 98.3%.

On to `CC1Cc2ccccc2N1S(=O)(=O)c1cccc(C(F)(F)F)c1` (centres undefined), for which the inhibition of growth at 0.8 µg/mL with Leishmania donovani [1] was 13.5%; in assay [2] it was 0%; with Trypanosoma cruzi [6], 0%; with Plasmodium falciparum [8], 15.1%. In addition, the inhibition of growth at 4.8 µg/mL is 77.6% with Leishmania donovani [3], 77.1% in the assay with Plasmodium falciparum [4], 0% in assay [5] and 5.7% in the assay with Trypanosoma cruzi [7].

`CC1CCc2ccccc2N1S(=O)(=O)c1ccccc1[N+](=O)[O-]` (centres undefined): the inhibition of growth at 0.8 µg/mL in the assay with Leishmania donovani [1] amounted to 22.4%; in assay [2], 0.4%; in the assay on Trypanosoma cruzi [6], 7.6%; in the assay on Plasmodium falciparum [8] it was 8.8%. Moreover, the inhibition of growth at 4.8 µg/mL in the assay with Leishmania donovani [3] came to 66.3%; with Plasmodium falciparum [4], 67.5%; in assay [5], 2.7%; in the assay with Trypanosoma cruzi [7], 43.7%.

Regarding `Cc1cc(C)c(C)c(S(=O)(=O)n2nnc3ccccc32)c1C`, the inhibition of growth at 0.8 µg/mL turned out to be 28.4% with Leishmania donovani [1], 0.7% in assay [2], 0% in the assay on Trypanosoma cruzi [6] and 0% in the assay on Plasmodium falciparum [8]. Further, the inhibition of growth at 4.8 µg/mL in the assay with Leishmania donovani [3] was 45.6%; in the assay on Plasmodium falciparum [4], 0.1%; in assay [5], 4.7%; in the assay on Trypanosoma cruzi [7], 2.9%.

Take `O=[N+]([O-])c1ccccc1S(=O)(=O)n1nnc2ccccc21`: the inhibition of growth at 0.8 µg/mL in the assay with Leishmania donovani [1] was determined as 32.7%; in assay [2], 0%; with Trypanosoma cruzi [6], 7.3%; in the assay on Plasmodium falciparum [8], 0%. For the same molecule, the inhibition of growth at 4.8 µg/mL in the assay on Leishmania donovani [3] turned out to be 89.4%; in the assay on Plasmodium falciparum [4] it was 0%; in assay [5], 1.3%; in the assay on Trypanosoma cruzi [7], 7.1%.

`O=[N+]([O-])c1ccccc1S(=O)(=O)N1CCc2ccccc2C1`: the inhibition of growth at 0.8 µg/mL in the assay with Leishmania donovani [1] amounted to 17.8%; in assay [2] it was 10.8%; with Trypanosoma cruzi [6], 3.1%; in the assay with Plasmodium falciparum [8], 0%. The inhibition of growth at 4.8 µg/mL stood at 57% in the assay on Leishmania donovani [3], 19.8% in the assay on Plasmodium falciparum [4], 6.9% in assay [5] and 27.5% in the assay on Trypanosoma cruzi [7].

For the molecule `O=[N+]([O-])c1ccccc1S(=O)(=O)N1CCc2ccccc21`, the inhibition of growth at 0.8 µg/mL turned out to be 4% with Leishmania donovani [1], 10.4% in assay [2], 0% in the assay on Trypanosoma cruzi [6] and 4% in the assay on Plasmodium falciparum [8]. Moreover, the inhibition of growth at 4.8 µg/mL in the assay with Leishmania donovani [3] came out at 81.5%; in the assay on Plasmodium falciparum [4] it was 48%; in assay [5], 17.9%; with Trypanosoma cruzi [7], 24.5%.

With `CC1Cc2ccccc2N1S(=O)(=O)c1ccc(F)cc1` (centres undefined), the inhibition of growth at 0.8 µg/mL with Leishmania donovani [1] was determined as 4%; in assay [2], 2.3%; with Trypanosoma cruzi [6], 0%; in the assay with Plasmodium falciparum [8] it was 12.6%. Also, the inhibition of growth at 4.8 µg/mL is 47% in the assay on Leishmania donovani [3], 65% with Plasmodium falciparum [4], 0% in assay [5] and 4.8% with Trypanosoma cruzi [7].

Consider `CC(=O)Nc1ccc(S(=O)(=O)N2c3ccccc3CC2C)cc1` (centres undefined), for which the inhibition of growth at 0.8 µg/mL was 6.4% in the assay with Leishmania donovani [1], 0% in assay [2], 0% in the assay with Trypanosoma cruzi [6] and 4.2% in the assay on Plasmodium falciparum [8]. Also, the inhibition of growth at 4.8 µg/mL in the assay with Leishmania donovani [3] worked out at 14.7%; in the assay with Plasmodium falciparum [4] it was 15.6%; in assay [5], 1.7%; in the assay with Trypanosoma cruzi [7], 46.7%.

For `O=S(=O)(c1ccc(C(F)(F)F)cc1)N1CCc2ccccc21`, the inhibition of growth at 0.8 µg/mL in the assay on Leishmania donovani [1] came to 12.6%; in assay [2], 2.2%; in the assay on Trypanosoma cruzi [6] it was 3.4%; with Plasmodium falciparum [8], 0%. Further, the inhibition of growth at 4.8 µg/mL in the assay on Leishmania donovani [3] came out at 68.8%; in the assay with Plasmodium falciparum [4], 59.8%; in assay [5], 0%; in the assay with Trypanosoma cruzi [7] it was 10.8%.

Turning to `O=C(Cn1ccnc1[N+](=O)[O-])NCc1ccccc1` [BENZNIDAZOLE], in the assay with Trypanosoma cruzi [6], the inhibition of growth at 0.8 µg/mL came out at 63.3%. The inhibition of growth at 4.8 µg/mL in the assay with Trypanosoma cruzi [7] was 98.5%.

As for `O=[N+]([O-])c1ccccc1S(=O)(=O)n1ccc2ccccc21`, the inhibition of growth at 0.8 µg/mL in the assay on Trypanosoma cruzi [6] was less than 40%.

Take `C[C@@H]1CC[C@H]2[C@@H](C)C(=O)O[C@@H]3O[C@@]4(C)CC[C@@H]1[C@]32OO4` [ARTEMISININ]: the inhibition of growth at 4.8 µg/mL in the assay on Plasmodium falciparum [4] amounted to 100%. The inhibition of growth at 0.8 µg/mL in the assay with Plasmodium falciparum [8] was 80%.

For the origin of these results see ChEMBL document CHEMBL4043153, “Lead selection of antiparasitic compounds from a focused library of benzenesulfonyl derivatives of heterocycles” (Bioorg Med Chem Lett, 2017).
